From patent publication US20160303184A1, “VANCOMYCIN-SUGAR CONJUGATES AND USES THEREOF” (JAWAHARLAL NEHRU CENTRE FOR ADVANCED SCIENTIFIC RESEARCH …, priority 2013, published 2016)
Converted amounts (≈) assume the structure as drawn. Read-outs that look alike come from different tables or passages of the source.

Experiments:
[1] = tested on: Vancomycin-sensitive E. faecium (ATCC 19634); assay: MIC, micro-dilution broth, VSE; type: cell-based; settings: Enterococcus faecium, ATCC19634, read-out: MIC VSE
Protocol: (§1) All test compounds were assayed in a micro-dilution broth format. Stock solutions were made by serially diluting the compounds using autoclaved millipore water or broth media. The antibacterial activity of the compounds was determined against methicillin-sensitive S. aureus (MSSA), methicillin-resistant S. aureus (MRSA), vancomycin-intermediate-resistant S. aureus (VISA), vancomycin-sensitive E. faecium (VSE) and vancomycin-resistant E. faecium (VRE). Bacteria, to be tested, were grown for about 10 h in the suitable media, MSSA, MRSA and VISA were grown in yeast-dextrose broth (about 1 g of beef extract, about 2 g of yeast extract, about 5 g of peptone and about 5 g of NaCl in about 1000 mL of sterile distilled water (pH-7)). For solid media, about 5% agar was used along with above mentioned composition. VSE and VRE were cultured in brain heart infusion broth (Himedia). The bacterial samples were freeze dried and stored at −80° C. About 5 μL of these stocks were added to about 3 mL of the nutrient broth and the culture was grown for about 6 h at about 37° C. prior to the experiments. This 6 h grown culture gives about 10^9 cfu/mL and this was determined by spread plating method. The 6 h grown culture was diluted to give effective cell concentration of about 10^5 cfu/mL which was then used for determining MIC. Compounds were serially diluted, in sterile water (2 fold dilution is employed) in a way that the working concentration was about 10 μM for MSSA, MRSA, and VSE while for VRE and VISA it was about 100 μM. About 50 μL of these serial dilutions were added to the wells of 96 well plate followed by the addition of about 150 μL of bacterial solution. The plates were then incubated at about 37° C., 150 rpm in the incubator and O.D at 600 nm was recorded at an interval of about 10 h and 24 h using TECAN (Infinite series, M200 pro) Plate Reader. Each concentration had triplicate values and the whole experiment was done at least twice and the MIC value was determined by taking the average of triplicate. O. D. values for each concentration and plotting it against concentration. The data was then subjected to sigmoidal fitting. From the curve the MIC value was determined, as the point in the curve where the O. D. was similar to that of control having no bacteria.

Systemic toxicity (LD50) = assay: Systemic toxicity (LD50); design: species or system CD-1 female mice; settings: female, CD-1, mouse, in vivo, iv, single-dose i.v., mice
Protocol: Systemic toxicity was examined after i.v injection of compound 7 to CD-1 female mice. Each mouse was injected with a 0.2 ml of freshly prepared compound 7 solution in saline. The doses of the compound administered per group were according to OECD guidelines (OECD, 2005).

[2] = tested on: methicillin-resistant vancomycin-intermediate S. aureus (MR-VISA); assay: Time-kill assay; type: cell-based; settings: 2 μM and 4 μM
Protocol: The bactericidal activity was assessed by the kinetics or the rate at which it affects the killing action of the compound. Briefly methicillin-resistant vancomycin-intermediate S. aureus (MR-VISA) grown in Yeast-Dextrose broth. A starting inoculum of 1.6×10^8 CFU/ml was used as initial bacterial colony count. Vancomycin and compound 7 having final concentrations of 2 μM and 4 μM were inoculated with MR-VISA suspensions having starting inocula of 1.6×10^8 CFU/ml. Bacterial suspension containing specified concentrations of the compound along with negative control (which contains only 0.9% Saline) was incubated at 37° C. with shaking. Aliquots (20 μl) were removed from the cultures at different time intervals and were serially diluted 10-fold in 0.9% saline and plated onto sterile Yeast-Dextrose agar medium. The number of viable cells was determined by plating the 10-fold serial dilution of each sample onto Yeast-dextrose agar medium. Plates were then incubated for 24 h at 37° C., CFU was counted and the total bacterial log 10 CFU/ml was determined.

[3] = tested on: Vancomycin intermediate resistant S. aureus; assay: MIC, micro-dilution broth, VISA; type: cell-based; settings: VISA
Protocol: as §1

[4] = tested on: Methicillin-sensitive S. aureus (MTCC 737); assay: MIC, micro-dilution broth, MSSA; type: cell-based; settings: Staphylococcus aureus, read-out: MIC MSSA
Protocol: as §1

MR-VISA [5] = assay: In-vivo antibacterial activity, neutropenic mouse thigh infection; design: species or system Staphylococcus aureus; settings: 12 mg/kg i.v., neutropenic mice, 24 h
Protocol: About six-week-old, female CD-1 mice (weight, ˜19-24 g) were used for the experiments. The mice were rendered neutropenic (˜100 […]) by injecting two doses of cyclophosphamide intraperitoneally 4 days (150 mg/kg) and 1 day (100 mg/kg) before the infection experiment. 50 μl of ˜10^7 CFU/ml concentration of the bacterial inoculum (MR-VISA) was injected into the thigh. One hour after inoculation, animals were treated intravenously with saline, vancomycin, linezolid and compound 7 at 12 mg/kg and 24 mg/kg of body weight (24 h total dosage). At 24 h post first treatment, cohorts of animals were euthanized (using ether) and the thighs were collected aseptically. The thigh was weighed (0.7 g-0.9 g) and placed into 10 ml of sterile saline and homogenized. The dilutions of the homogenate were plated onto agar plates, which were incubated overnight at 37° C. The bacterial titer was expressed as log10 CFU/g of thigh weight.

MR-VISA [6] = assay: Pharmacodynamics against MR-VISA thigh infection, single dose; type: in vivo, Staphylococcus aureus; settings: single i.v. dose; for ED50: 50% maximal bacterial killing; for EDstasis: 24-h colony count similar to pretreatment count
Protocol: Data are expressed as means±SD (error bars). A separate single-dose study of compound 7 was performed in neutropenic mice inoculated in the thigh with 50 μL of MR-VISA (10^7 CFU/ml). Infected animals were treated intravenously, at 1 h post infection, with 2 mg/kg, 4 mg/kg, 8 mg/kg and 12 mg/kg. At 24 h post inoculation mice were sacrificed and the thigh tissues were harvested for determination of bacterial titer as mentioned above.

CCCCCCCCCCN[C@]1(C)C[C@H](OC2C(O)[C@@H](O)C(CO)O[C@@H]2Oc2c3cc4cc2Oc2ccc(cc2Cl)[C@@H](O)[C@@H](NC(=O)[C@@H](CC(C)C)NC)C(=O)N[C@@H](CC(N)=O)C(=O)N[C@H]4C(=O)N[C@H]2C(=O)N[C@H](C(=O)N[C@H](C(=O)NCCCNC(=O)[C@H](O)[C@@H](O)[C@H](OC4OC(CO)C(O)C(O)[C@H]4O)[C@H](O)CO)c4cc(O)cc(O)c4-c4cc2ccc4O)[C@H](O)c2ccc(c(Cl)c2)O3)OC(C)[C@@H]1O (some centres unmarked) [Compound 7]
MIC [1]: 0.15 µM (≈ 0.298 µg/mL) | LD50 at 14 days (Systemic toxicity (LD50)): > 100 mg/kg | killing kinetics [2]: rapid | MIC ([3]; Staphylococcus aureus, read-out: MIC VISA): 0.2 µM (≈ 0.397 µg/mL) | fold more active than vancomycin [3]: about 65 fold | MIC [4]: 0.2 µM (≈ 0.397 µg/mL) | reduction in bacterial count from the initial titer (MR-VISA [5]): ~3.0 log10 CFU/g | ED50 (MR-VISA [6]; Staphylococcus aureus, VISA, in Mus musculus, iv, 24 h, neutropenic mice thigh, 24 h, read-out: ED50): 1.05 mg/kg | ED1-log kill (MR-VISA [6]; neutropenic mice thigh, 24 h): 3.7 mg/kg | ED2-log kill (MR-VISA [6]; neutropenic mice thigh, 24 h): 8.8 mg/kg | ED2.6-log kill (MR-VISA [6]; neutropenic mice thigh, 24 h): 12 mg/kg | ED50 (MR-VISA [6]; neutropenic mice thigh, 24 h): 1.0 mg/kg | EDstasis (MR-VISA [6]): 2.2 mg/kg | EDstasis (MR-VISA [6]; listed as compound 7): 2.22 mg/kg
